Columns and labels:
BRAF V600E = BRAF V600E (Homo sapiens (Human), UniProt P15056, V600E); experiment: Kinase selectivity, Lanthascreen analysis method; assay type: biochemical
Adrenergic β1 = Adrenergic β1 (Homo sapiens (Human), UniProt P08588); experiment: Radioligand binding assay No. 204010; details: test substance 10 μM, read-out: Inhibitory rate (%), Adrenergic β1
Adrenergic β2 = Adrenergic β2 (Homo sapiens (Human), UniProt P07550); experiment: Radioligand binding assay No. 204110; details: test substance 10 μM, read-out: Inhibitory rate (%), Adrenergic β2
Bradykinin B1 = Bradykinin B1 (Homo sapiens (Human), UniProt P46663); experiment: Radioligand binding assay No. 212510; details: test substance 10 μM, read-out: Inhibitory rate (%), Bradykinin B1
Cannabinoid CB1 = Cannabinoid CB1 (Homo sapiens (Human), UniProt P21554); experiment: Radioligand binding assay No. 217030; details: test substance 10 μM, read-out: Inhibitory rate (%), Cannabinoid CB1
Dopamine D2S = Dopamine D2S (Homo sapiens (Human), UniProt P14416); experiment: Radioligand binding assay No. 219700; details: test substance 10 μM, read-out: Inhibitory rate (%), Dopamine D2S
Dopamine D4.2 = Dopamine D4.2 (Homo sapiens (Human), UniProt P21917, DEL265-296); experiment: Radioligand binding assay No. 219900; details: test substance 10 μM, read-out: Inhibitory rate (%), Dopamine D4.2
Endothelin ETB = Endothelin ETB (Homo sapiens (Human), UniProt P24530); experiment: Radioligand binding assay No. 224110; details: test substance 10 μM, read-out: Inhibitory rate (%), Endothelin ETB
[1] = target: Epidermal Growth Factor (EGF) (Homo sapiens (Human), UniProt P00533); experiment: Radioligand binding assay No. 225510; details: test substance 10 μM, read-out: Inhibitory rate (%), Epidermal Growth Factor (EGF)
Estrogen ERα = Estrogen ERα (Homo sapiens (Human), UniProt P03372); experiment: Radioligand binding assay No. 226010; details: test substance 10 μM, read-out: Inhibitory rate (%), Estrogen ERα
ImidazolineI2, Central = experiment: Radioligand binding assay No. 241000; details: test substance 10 μM; rat
Potassium Channel [KATP] = experiment: Radioligand binding assay No. 265600; details: test substance 10 μM; Human
Purinergic P2X = experiment: Radioligand binding assay No. 268700; details: test substance 10 μM; rabbit
Transporter, GABA = experiment: Radioligand binding assay No. 226400; details: test substance 10 μM; rat
[2] = target: Transporter, Serotonin (5-Hydroxytryptamine) (SERT) (Homo sapiens (Human), UniProt P31645); experiment: Radioligand binding assay No. 274030; details: test substance 10 μM, read-out: Inhibitory rate (%), Transporter, Serotonin (5-Hydroxytryptamine) (SERT)
MCF-7 = experiment: In vitro cytological inhibitory activity (XTT); assay type: cell-based; details: Homo sapiens, MCF7, 72 hrs
Protocol: MCF-7: Human breast carcinoma cell line;
(§1) 1. Preparation of agents and compounds:
(§2) • 1.1 Preparation of phosphoric acid buffering solution (PBS): 8 g NaCl, 0.2 g KCl, 1.44 g Na2HPO4 and 0.24 g KH2PO4 were weighed and added to 800 mL ultrapure water. The mixture was adjusted to pH=7.4, and ultrapure water was added to the metered volume of IL. Then the autoclaving was conducted for 20 mins. • 1.2 Preparation of XTT detection working solution: 100 mg (2,3-Bis-(2-methoxy-4-nitro-5-sulfophenyl)-2H-tetrazolium-5-carboxanilide); 2,3-bis(2-methoxy-4-nitro-5-sulfophenyl)-5-[(phenylamino)carbonyl]-2H-tetrazolium hydroxide (XTT) powder was weighed, and dissolved under protection from light 300 mL of phenol red-free and serum-free RPMI1640 culture, which had been warmed up to 50° C. The resulting mixture was filtered, packaged and used immediately or in one week. The complete process was conducted under protection from light. • 1.3 Preparation of the test compound • Preparation of the stock solution of the test compound: The test compound powder was dissolved in DMSO in a concentration of 10 mM. • Preparation of the gradiently diluted solution of the test compound: 10 mM of the stock solution of the test compound was successively and gradiently diluted with DMSO by 4 folds for 10 concentrations. […]

U87MG = experiment: In vitro cytological inhibitory activity (XTT); assay type: cell-based; details: Homo sapiens, U-87 MG, 72 hrs
Protocol: U87MG: Human brain astrocytoblast cell line;
as §1, §2

Sequence of Bradykinin B1 (P46663 whole entry): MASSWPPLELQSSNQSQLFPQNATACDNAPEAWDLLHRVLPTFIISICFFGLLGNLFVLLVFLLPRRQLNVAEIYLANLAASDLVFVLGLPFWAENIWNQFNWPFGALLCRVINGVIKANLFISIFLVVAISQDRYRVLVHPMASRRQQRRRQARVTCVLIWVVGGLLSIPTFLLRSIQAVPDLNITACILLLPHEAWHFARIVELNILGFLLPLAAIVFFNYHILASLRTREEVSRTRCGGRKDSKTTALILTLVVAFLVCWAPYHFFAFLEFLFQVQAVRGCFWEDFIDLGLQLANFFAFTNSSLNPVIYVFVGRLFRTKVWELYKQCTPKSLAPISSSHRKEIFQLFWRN
Sequence of Dopamine D2S (P14416 other isoform, or with tags, fused parts or gaps): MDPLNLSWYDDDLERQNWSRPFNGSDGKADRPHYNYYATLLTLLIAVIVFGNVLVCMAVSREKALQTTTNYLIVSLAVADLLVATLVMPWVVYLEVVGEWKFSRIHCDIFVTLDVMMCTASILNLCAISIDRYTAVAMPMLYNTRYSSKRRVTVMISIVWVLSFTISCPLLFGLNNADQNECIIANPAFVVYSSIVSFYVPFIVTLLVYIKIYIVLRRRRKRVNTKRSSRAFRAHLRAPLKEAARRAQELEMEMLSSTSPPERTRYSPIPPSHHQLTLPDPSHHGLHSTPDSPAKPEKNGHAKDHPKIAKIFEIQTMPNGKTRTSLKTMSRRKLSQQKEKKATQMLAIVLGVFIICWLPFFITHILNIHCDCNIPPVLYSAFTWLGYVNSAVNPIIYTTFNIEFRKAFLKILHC
Sequence of Adrenergic β1 (P08588 whole entry): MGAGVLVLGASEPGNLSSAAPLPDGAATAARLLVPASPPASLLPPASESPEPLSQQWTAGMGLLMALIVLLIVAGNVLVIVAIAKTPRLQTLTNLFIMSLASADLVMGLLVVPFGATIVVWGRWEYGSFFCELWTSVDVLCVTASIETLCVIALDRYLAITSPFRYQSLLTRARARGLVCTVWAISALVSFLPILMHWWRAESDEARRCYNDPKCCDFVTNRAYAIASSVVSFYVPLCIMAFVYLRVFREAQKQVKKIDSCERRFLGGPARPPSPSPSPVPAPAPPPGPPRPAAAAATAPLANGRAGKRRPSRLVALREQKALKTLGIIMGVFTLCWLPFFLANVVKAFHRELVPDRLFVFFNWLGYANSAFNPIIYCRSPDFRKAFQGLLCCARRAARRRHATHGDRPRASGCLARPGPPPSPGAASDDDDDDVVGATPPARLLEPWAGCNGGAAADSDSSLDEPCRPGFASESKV
Sequence of BRAF V600E (P15056 whole entry V600E): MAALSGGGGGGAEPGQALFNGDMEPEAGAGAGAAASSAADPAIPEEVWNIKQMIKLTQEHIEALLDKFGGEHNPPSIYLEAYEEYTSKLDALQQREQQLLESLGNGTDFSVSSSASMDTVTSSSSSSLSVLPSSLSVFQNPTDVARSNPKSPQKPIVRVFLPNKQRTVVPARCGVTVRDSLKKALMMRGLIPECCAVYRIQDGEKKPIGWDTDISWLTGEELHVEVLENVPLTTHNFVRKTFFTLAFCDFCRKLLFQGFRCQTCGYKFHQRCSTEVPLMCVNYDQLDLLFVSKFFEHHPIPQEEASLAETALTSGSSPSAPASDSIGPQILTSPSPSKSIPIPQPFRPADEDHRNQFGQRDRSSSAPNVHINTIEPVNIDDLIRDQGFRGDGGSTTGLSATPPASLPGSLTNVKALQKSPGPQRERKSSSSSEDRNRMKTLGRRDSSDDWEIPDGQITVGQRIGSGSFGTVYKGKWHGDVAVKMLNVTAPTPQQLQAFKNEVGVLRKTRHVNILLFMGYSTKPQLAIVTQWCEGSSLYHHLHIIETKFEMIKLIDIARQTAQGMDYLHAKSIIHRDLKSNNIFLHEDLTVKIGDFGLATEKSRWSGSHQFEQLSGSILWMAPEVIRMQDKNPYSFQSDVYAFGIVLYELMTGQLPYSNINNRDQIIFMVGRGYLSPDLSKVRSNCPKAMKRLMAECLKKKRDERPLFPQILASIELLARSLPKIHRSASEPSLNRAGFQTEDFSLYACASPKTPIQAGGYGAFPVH
Sequence of Estrogen ERα (P03372 whole entry): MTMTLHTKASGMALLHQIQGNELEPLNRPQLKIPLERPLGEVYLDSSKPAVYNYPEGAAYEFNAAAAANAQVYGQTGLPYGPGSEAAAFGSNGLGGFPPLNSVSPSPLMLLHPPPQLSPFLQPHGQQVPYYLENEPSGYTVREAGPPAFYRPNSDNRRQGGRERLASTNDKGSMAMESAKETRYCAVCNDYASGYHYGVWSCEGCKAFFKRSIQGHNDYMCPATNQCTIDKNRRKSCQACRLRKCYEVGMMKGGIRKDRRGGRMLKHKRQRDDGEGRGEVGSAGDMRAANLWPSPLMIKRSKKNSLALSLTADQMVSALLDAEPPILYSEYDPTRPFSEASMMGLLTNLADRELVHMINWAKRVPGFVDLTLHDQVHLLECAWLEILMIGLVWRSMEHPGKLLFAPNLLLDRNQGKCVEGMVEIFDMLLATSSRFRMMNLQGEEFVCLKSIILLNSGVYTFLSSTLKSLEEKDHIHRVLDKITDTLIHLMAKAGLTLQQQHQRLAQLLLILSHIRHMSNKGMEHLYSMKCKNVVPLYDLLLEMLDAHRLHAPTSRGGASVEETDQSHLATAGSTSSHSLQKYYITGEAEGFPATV
Sequence of Endothelin ETB (P24530 27-442): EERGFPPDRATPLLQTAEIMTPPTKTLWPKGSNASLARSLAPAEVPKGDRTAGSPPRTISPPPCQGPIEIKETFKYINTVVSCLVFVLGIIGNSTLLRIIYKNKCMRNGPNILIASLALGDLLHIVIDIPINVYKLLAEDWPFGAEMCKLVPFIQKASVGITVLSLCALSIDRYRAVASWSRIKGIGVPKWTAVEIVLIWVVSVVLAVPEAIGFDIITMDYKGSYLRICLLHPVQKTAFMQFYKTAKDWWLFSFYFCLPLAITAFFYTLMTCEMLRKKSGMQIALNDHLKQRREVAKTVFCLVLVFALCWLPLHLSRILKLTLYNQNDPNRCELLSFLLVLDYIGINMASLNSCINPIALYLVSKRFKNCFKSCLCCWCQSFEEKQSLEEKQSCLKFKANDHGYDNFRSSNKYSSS
Sequence of Cannabinoid CB1 (P21554 whole entry): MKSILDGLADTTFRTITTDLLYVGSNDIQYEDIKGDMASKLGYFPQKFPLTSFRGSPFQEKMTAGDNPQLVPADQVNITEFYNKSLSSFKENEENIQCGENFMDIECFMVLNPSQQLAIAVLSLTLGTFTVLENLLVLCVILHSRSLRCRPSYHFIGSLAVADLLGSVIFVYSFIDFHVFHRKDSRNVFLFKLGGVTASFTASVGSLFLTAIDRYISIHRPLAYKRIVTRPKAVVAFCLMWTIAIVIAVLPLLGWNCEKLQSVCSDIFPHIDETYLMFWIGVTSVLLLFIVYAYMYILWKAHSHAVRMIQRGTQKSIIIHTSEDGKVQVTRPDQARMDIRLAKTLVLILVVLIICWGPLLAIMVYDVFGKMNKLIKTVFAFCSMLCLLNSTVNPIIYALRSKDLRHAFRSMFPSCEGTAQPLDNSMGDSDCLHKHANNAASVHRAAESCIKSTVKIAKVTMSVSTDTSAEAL
Sequence of Dopamine D4.2 (P21917 other isoform, or with tags, fused parts or gaps del 265-296): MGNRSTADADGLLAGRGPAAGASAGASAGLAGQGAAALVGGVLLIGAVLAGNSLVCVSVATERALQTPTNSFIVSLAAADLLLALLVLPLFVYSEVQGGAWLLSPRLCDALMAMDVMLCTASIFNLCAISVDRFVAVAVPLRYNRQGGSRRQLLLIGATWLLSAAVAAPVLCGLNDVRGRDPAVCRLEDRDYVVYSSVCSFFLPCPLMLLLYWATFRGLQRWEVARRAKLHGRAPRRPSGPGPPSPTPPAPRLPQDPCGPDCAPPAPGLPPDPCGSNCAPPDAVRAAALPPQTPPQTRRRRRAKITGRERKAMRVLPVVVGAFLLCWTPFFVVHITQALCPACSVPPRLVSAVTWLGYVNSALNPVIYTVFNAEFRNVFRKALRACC
Sequence of Adrenergic β2 (P07550 whole entry): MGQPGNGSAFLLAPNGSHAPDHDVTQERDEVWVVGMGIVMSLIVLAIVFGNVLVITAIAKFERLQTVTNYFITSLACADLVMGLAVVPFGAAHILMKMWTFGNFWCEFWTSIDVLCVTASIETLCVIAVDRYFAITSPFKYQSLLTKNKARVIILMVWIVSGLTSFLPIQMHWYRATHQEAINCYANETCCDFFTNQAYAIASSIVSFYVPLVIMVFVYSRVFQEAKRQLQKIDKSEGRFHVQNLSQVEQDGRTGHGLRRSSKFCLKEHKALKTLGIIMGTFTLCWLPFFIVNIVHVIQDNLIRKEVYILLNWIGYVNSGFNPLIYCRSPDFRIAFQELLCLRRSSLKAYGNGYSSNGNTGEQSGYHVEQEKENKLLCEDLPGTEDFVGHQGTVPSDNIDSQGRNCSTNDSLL
Sequence of Transporter, Serotonin (5-Hydroxytryptamine) (SERT) (P31645 whole entry): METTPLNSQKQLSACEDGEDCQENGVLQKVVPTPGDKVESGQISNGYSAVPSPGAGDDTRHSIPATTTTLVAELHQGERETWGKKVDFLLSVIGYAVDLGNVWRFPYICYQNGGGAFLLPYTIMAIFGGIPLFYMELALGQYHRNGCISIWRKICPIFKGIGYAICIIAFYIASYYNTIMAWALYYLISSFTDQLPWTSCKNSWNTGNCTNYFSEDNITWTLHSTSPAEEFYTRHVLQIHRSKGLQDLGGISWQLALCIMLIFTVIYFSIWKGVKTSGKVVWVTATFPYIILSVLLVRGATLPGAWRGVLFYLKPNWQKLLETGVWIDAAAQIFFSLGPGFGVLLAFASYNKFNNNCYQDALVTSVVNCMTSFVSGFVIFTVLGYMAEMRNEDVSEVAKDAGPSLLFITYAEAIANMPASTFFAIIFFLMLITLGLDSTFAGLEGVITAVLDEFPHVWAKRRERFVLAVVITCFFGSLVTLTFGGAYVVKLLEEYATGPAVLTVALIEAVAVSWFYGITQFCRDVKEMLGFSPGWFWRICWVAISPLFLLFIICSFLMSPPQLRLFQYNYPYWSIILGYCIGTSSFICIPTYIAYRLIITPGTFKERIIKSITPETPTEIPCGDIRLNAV

Row | Structure (SMILES) | IC50 (BRAF V600E) | inhibition at 10 µM (Adrenergic β1) | inhibition at 10 µM (Adrenergic β2) | inhibition at 10 µM (Bradykinin B1) | inhibition at 10 µM (Cannabinoid CB1) | inhibition at 10 µM (Dopamine D2S) | inhibition at 10 µM (Dopamine D4.2) | inhibition at 10 µM (Endothelin ETB) | inhibition at 10 µM [1] | inhibition at 10 µM (Estrogen ERα) | Inhibitory rate (%), ImidazolineI2, Central (ImidazolineI2, Central) | Inhibitory rate (%), Potassium Channel [KATP] (Potassium Channel [KATP]) | Inhibitory rate (%), Purinergic P2X (Purinergic P2X) | Inhibitory rate (%), Transporter, GABA (Transporter, GABA) | inhibition at 10 µM [2] | IC50 (MCF-7) | IC50 (U87MG)
1 | Nc1ccc(-c2ccc3ncc4c(=O)[nH]c(=O)n(-c5cccc(C(F)(F)F)c5)c4c3n2)cn1 [Compound 5, 9-(6-aminopyridin-3-yl)-1-(3-(trifluoromethyl)phenyl)pyrimido[5,4-c][1,5]naphthyridine-2,4(1H,3H)-dione] | > 10000 nM | 0% | 17% | 0% | 25% | 14% | 12% | 7% | 11% | 17% | 0% | 11% | 9% | 12% | 6% | 28.2 nM | –
2 | O=c1[nH]c(=O)n(-c2cccc(C(F)(F)F)c2)c2c1cnc1ccc(-c3cnc4[nH]ccc4c3)nc12 [Compound 30, 9-(1H-pyrrolo[2,3-b]pyridin-5-yl)-1-(3-(trifluoromethyl)phenyl)pyrimido[5,4-c][1,5]naphthyridine-2,4(1H,3H)-dione] | – | – | – | – | – | – | – | – | – | – | – | – | – | – | – | – | 28.3 nM

Source: patent US9365572B2, “PI3K and/or mTOR inhibitor” (XUANZHU PHARMA CO., LTD., priority 2012, dated 2016)
